Assay [1] deals with E. coli BAS901. Nature of the assay: bacteriostatic or bactericidal action. Format: cell-based, Escherichia coli.
A further assay concerns the target T1, Vgb (Staphylococcus aureus, UniProt P17978).
T1 construct: made in house
Kind of assay: inhibition of the streptogramin inactivating enzyme Vgb. Format: biochemical. Particulars: concentrations of up to 0.4 mM. Here is the method:
On-resin chemical cyclization of 5 provided sufficient material for more extensive analysis of antibacterial activity and investigation of its ability to inhibit the streptogramin inactivating enzyme Vgb. This enzyme however was insensitive to 5 in concentrations of up to 0.4 mM. […] Regardless of the actual mechanism, the design of these streptogramin-tyrocidine chimeras of the present invention result in antibiotics that are not recognized by a streptogramin inactivation enzyme.

The test system of another assay is Streptococcus pneumoniae. Nature of the assay: growth inhibition, text summary of disk assay. Particulars: strain not given. Format: cell-based. How it is done: (§1) The antibiotic activity of the peptides synthesized in this study was initially assayed using a disk assay where samples were applied to sterile paper disks placed on a fresh lawn of bacterial culture on appropriate agar plates as required by the organism. These were then incubated for 16 hr at 37° C. and the zone of growth inhibition surrounding the disks recorded. For quantitative assessment of antibiotic activity in liquid culture, the minimal inhibitory concentration (MIC) of peptides was determined by serial dilution studies. The peptides and standard antibiotics were dissolved in DMSO and the final concentration of DMSO in the liquid cultures was 5%. Both S. aureus RN4220 and E. coli BAS901 were able to grow efficiently at this level of DMSO.
(§2) Crude material from the initial synthesis reactions was used to test the potential of the analogues as antibiotics in susceptibility assays where a solution of the compound was placed on a paper disk on a lawn of bacteria. As described above, E. coli BAS901 is deficient in the Imp/OstA protein, an outer membrane protein, involved in cell envelope biogenesis (1, 5). […] The antibiotic activity of the peptides synthesized in this study was initially assayed using a disk assay where samples were applied to sterile paper disks placed on a fresh lawn of bacterial culture on Tryptic Soya, Luria Broth, or Brain Heart Infusion Agar plates. These were then incubated for 16 hrs at 37° C. and the zone of growth inhibition surrounding the disks recorded.

In assay [2] the test system is Staphylococcus epidermidis. Kind of assay: growth inhibition, text summary of disk assay. Format: cell-based. Particulars: strain not given. How it is done:
as §1, §2

The next assay concerns Bacillus subtilis. Nature of the assay: growth inhibition, text summary of disk assay. Format: cell-based. Particulars: strain not given. Here is the method: as §1, §2
The test system of another assay is Enterococcus faecalis. Kind of assay: growth inhibition, text summary of disk assay. It counts as cell-based. Particulars: strain not given. How it is done: as §1, §2
The next assay deals with in vitro translation. Nature of the assay: In Vitro Translation Assay. Format: biochemical. Particulars: FIG. 6. How it is done: Inhibition of translation was monitored using an ActivePro In Vitro Translation Kit from Ambion. Briefly, a reaction mixture was prepared as per the manufacturer's instructions that contained all of the constituents necessary (including [^35S]-methionine) except for DNA template. These mixtures were then preincubated for 15 min at room temperature in the presence or absence of various antibiotics. Subsequent to the preincubation period, a control template containing a chloramphenicol acetyltransferase gene under control of a bacteriophage T7 promoter was added and the reaction carried out for 1 hr at 37° C. Due to the insoluble nature of some of the antibiotics, the final DMSO concentration in each reaction including controls was maintained at 5% (v/v). Aliquots were taken after 1 hr, and separated on SDS polyacrylamide gels. The efficiency of translation of ^35S-labeled […] was analyzed and quantified using a Typhoon 9200 variable mode imager (Image-Quant 5.2 software).

The subject of another assay is E. coli (ATCC 25922). Nature of the assay: disk assay, zone of growth inhibition. It counts as cell-based, Escherichia coli. Particulars: wild-type. Here is the method: as §1
(§3) Crude material from the initial synthesis reactions was used to test the potential of the analogues as antibiotics in susceptibility assays where a solution of the compound was placed on a paper disk on a lawn of bacteria. As described above, E. coli BAS901 is deficient in the Imp/OstA protein, an outer membrane protein, involved in cell envelope biogenesis (1, 5). […] These were then incubated for 16 hrs at 37° C. and the zone of growth inhibition surrounding the disks recorded.

Assay [3] concerns E. coli BAS901/pUCVgb. Kind of assay: microbe, parasite or virus in culture. It counts as cell-based, Escherichia coli.
Excerpt: (§4) A hyperpermeable E. coli strain, E. coli BAS901, harboring a plasmid constitutively expressing Vgb was created for in vivo studies. The plasmids pVGB, described previously in [14], and […] were digested with Xbal and BamHI, to yield an approximately 1 kb fragment containing a ribosomal binding site upstream of vgb, and linearized pUC19 backbone, respectively. The vgb fragment was then subcloned into the linearized pUC19 backbone downstream of pLac yielding pUC19-VGB. Both pUC19-VGB and pUC19 were transformed E. coli BAS901.
as §1

The subject of assay [4] is E. coli BAS901/pUC19. Nature of the assay: microbe, parasite or virus in culture. Format: cell-based, Escherichia coli.
Excerpt: as §4, §1

The subject of assay [5] is B. subtilis 1A752. Nature of the assay: checker-board synergy test with dalfopristin. It counts as cell-based, Bacillus subtilis. Particulars: microtiter plates, checker-board technique. An excerpt:
(§5) Quinupristin and dalfopristin act in a synergistic manner.

Assay [6] deals with B. subtilis 1A752. Kind of assay: bacteriostatic or bactericidal action. Format: cell-based, Bacillus subtilis.
Assay [7] has as its system E. coli BAS901. Nature of the assay: checker-board synergy test with dalfopristin. Format: cell-based, Escherichia coli. Particulars: microtiter plates, checker-board technique.
Excerpt: as §5

The test system of assay [8] is E. coli BAS901/pUCVgb. Kind of assay: disk assay, zone of growth inhibition. It counts as cell-based, Escherichia coli. Particulars: Vgb constitutively expressed.
Excerpt: as §4, §1, §2

In another assay the test system is Bacillus subtilis 1A752. Nature of the assay: disk assay, zone of growth inhibition. It counts as cell-based. How it is done:
as §1, §2

In assay [9] the test system is Enterococcus faecium CP54-32. Kind of assay: disk assay, zone of growth inhibition. Format: cell-based. Here is the method:
as §1, §2

Another assay deals with Micrococcus luteus. Kind of assay: disk assay, zone of growth inhibition. Format: cell-based. How it is done: as §1, §2
Another assay relates to Escherichia coli BAS901. Nature of the assay: disk assay, zone of growth inhibition. Format: cell-based. Particulars: Escherichia coli BAS901, hyperpermeable, 16 hr at 37° C. How it is done:
Partially purified material from these reactions was used to test their antibiotic properties in disk diffusion susceptibility assays using E. coli BAS901.
as §1, §3

The subject of the next assay is B. subtilis W23. Kind of assay: disk assay, zone of growth inhibition. It counts as cell-based, Bacillus subtilis. How it is done: as §1, §3
Another assay has as its system B. subtilis L5706. Nature of the assay: disk assay, zone of growth inhibition. Format: cell-based, Bacillus subtilis. Here is the method:
as §1, §3

Assay [10] concerns S. saprophyticus (ATCC 15305). Kind of assay: disk assay, zone of growth inhibition. It counts as cell-based, Staphylococcus saprophyticus. Here is the method: as §1, §3
Assay [11] concerns E. coli BAS901/pUC19. Kind of assay: disk assay, zone of growth inhibition. Format: cell-based, Escherichia coli.
Excerpt: as §4, §1, §2

The mark [12] stands for this setting: E. coli BAS901/pUCVgb (expressing Vgb).

The structures appear in SMILES notation. Converted amounts (≈) assume the structure as drawn. Where two headings read alike, the source gives them in different places. Numbered stars: 1 amine (or outer) side, 2 acyl side, 3 side chain; on linkers, the order of the positions; unused ones are H or OH. Bridge positions count the residues as written; N and C are the ends. Square brackets hold non-standard residues; d marks the D form. Peptide text beside a SMILES is read from it. * marks the point of attachment. X1 = O=C1C[C@@H](C(=O)[*:2])N([*:1])C[C@H]1CS[C@@H]1CN2CCC1CC2; NMePhe(4-NMe2) = CN[C@@H](Cc1ccc(N(C)C)cc1)C(=O)O; Picolinoyl(3-OH) = O=C(c1ncccc1O)*; Phg = N[C@H](C(=O)O)c1ccccc1; Orn = NCCC[C@H](N)C(=O)O; dAbu = CC[C@@H](N)C(=O)O; Dap = NC[C@H](N)C(=O)O A value given as a limit tells only on which side of the number the result lay.

We go through two compounds from patent US7169756B2, “Streptogramin antibiotics” (priority 2005, dated 2007).

T1 sequence (P17978 whole entry): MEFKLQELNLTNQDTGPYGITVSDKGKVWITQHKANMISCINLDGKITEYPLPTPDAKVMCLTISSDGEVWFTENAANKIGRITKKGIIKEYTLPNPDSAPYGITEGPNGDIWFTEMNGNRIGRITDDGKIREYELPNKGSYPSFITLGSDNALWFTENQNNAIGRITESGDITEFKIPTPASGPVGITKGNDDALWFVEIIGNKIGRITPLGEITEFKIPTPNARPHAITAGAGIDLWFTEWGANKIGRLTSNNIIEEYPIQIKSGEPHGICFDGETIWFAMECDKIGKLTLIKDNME

Turning to `CC(C)C[C@@H]1NC(=O)[C@H](CCCN)NC(=O)[C@H]([C@@H](C)O)NC(=O)[C@@H](NC(=O)c2ncccc2O)CNC(=O)[C@H](Cc2ccccc2)NC(=O)[C@@H]2CCCN2C(=O)[C@@H](Cc2ccccc2)NC1=O` [Compound 5] ({Picolinoyl(3-OH)}-[Dap]T[Orn]L[dF]PF; lactam 1-C), the bacteriostatic or bactericidal result in the assay on E. coli BAS901 [1] was “bacteriostatic and not bactericidal”; in the assay with B. subtilis 1A752 [6] it was “bacteriostatic and not bactericidal”. The “inhibition of Vgb” value against Vgb was “insensitive”. Besides, the growth inhibition activity entry (in the assay on Streptococcus pneumoniae; in [2]; with Bacillus subtilis; in the assay on Enterococcus faecalis) was “active” throughout. For the same compound, the “inhibition of in vitro translation” value in the assay with in vitro translation (at 250 μg/ml) is on record as “did not”. In addition, the “Zone of Inhibition” value was “n.i” with E. coli (ATCC 25922) and “still exhibit zones of inhibition” in the assay with E. coli BAS901/pUCVgb [8]. Further, the MIC in the assay with E. coli BAS901/pUCVgb [3] (setting [12]) stood at 32 µg/mL (≈ 34.5 µM); against E. coli BAS901/pUC19 [4] (E. coli BAS901/pUC19 (control), 5% DMSO) it was 32 µg/mL (≈ 34.5 µM). Further, the synergy with dalfopristin entry is “additive, not synergistic” with B. subtilis 1A752 [5] and “additive, not synergistic” with E. coli BAS901 [7].

`CC[C@H]1NC(=O)[C@@H](NC(=O)c2ncccc2O)[C@@H](C)OC(=O)[C@H](c2ccccc2)NC(=O)[C@@H]2CC(=O)[C@H](CS[C@@H]3CN4CCC3CC4)CN2C(=O)[C@H](Cc2ccc(N(C)C)cc2)N(C)C(=O)[C@@H]2CCCN2C1=O` [Quinupristin, quinupristin, reference compound] ({Picolinoyl(3-OH)}-T[dAbu]P[NMePhe(4-NMe2)][X1][Phg]; ester 1-C): the “inhibition of in vitro translation” value with in vitro translation (15 min preincubation, 1 hr at 37° C., 5% DMSO, concentration not given) was “did block”. In addition, the “Zone of Inhibition” value with Bacillus subtilis 1A752 is reported as 1.8 cm; in assay [9] it was 1.8 cm; in the assay with Micrococcus luteus it was 2.7 cm; with E. coli (ATCC 25922), “n.i”; in the assay with Escherichia coli BAS901 it was 2.2 cm; in the assay with B. subtilis W23 it was 2.1 cm. Further, the “Zone of Inhibition” value in the assay on B. subtilis L5706 was 2.1 cm; in assay [10], 2.3 cm; in the assay on E. coli BAS901/pUCVgb [8] it was “n.i.^a”; in the assay with E. coli BAS901/pUCVgb [8] (listed as quinupristin), “inactivated”; with E. coli BAS901/pUC19 [11], 2.2 cm; in the assay on E. coli BAS901/pUC19 [11] (listed as quinupristin) it was “exhibit a zone of inhibition”. In addition, the MIC entry was “increased significantly” in the assay on E. coli BAS901/pUCVgb [3] (setting [12]); above 256 µg/mL in the assay with E. coli BAS901/pUCVgb [3] (Escherichia coli, BAS901/PUCVGB); 4 µg/mL (≈ 3.91 µM) against E. coli BAS901/pUC19 [4] (Escherichia coli, BAS901/PUC19).
